Experimental data taken from patent publication US10793892B2, “Method for detecting the presence of expanded spectrum β-lactamase-producing bacteria in a sample” (INSERM (INSTITUT NATIONAL DE LA SANTE ET DE LA RECHERCHE …, priority 2011, dated 2020).

Legend:
S. enterica [1] = experiment: ESBL NDP test using cultured strains; type: biochemical, Salmonella enterica; design: key: (+) and (−) referred to color change being, red to yellow or unchanged, respectively; (+) and (−) referred to color change being, red to yellow or unchanged, respectively
Description: (§1) Strains were isolated on Mueller-Hinton agar (Biorad, Marnes-la-Coquette, France) and incubated at 37° C. for 16 h to 24 h before performing the NDP rapid ESBL test as follows. One calibrated inoculated loop (10 μl) of the tested strain was resuspended in 150 μl of 20 mM Tris-HCl lysis buffer previously distributed in Microbead tubes (Ultraclean Microbial DNA isolation kit Bead Tubes, MO BIO Laboratories, Carlsbad, USA). Mechanical lysis of bacteria was performed by strong agitation of Microbead tubes using a vortex adapter (MO BIO Laboratories) for 30 min at room temperature. This bacterial suspension was centrifuged at 10,000×g at room temperature for 5 min. Thirty μl of the supernatant was mixed in a well of a 96-well tray with 100 μl of a 1 ml solution made of 3 mg of purified cefotaxime sodium salt (Sigma-Aldrich, Saint-Quentin-Fallavier, France) in a pH 7.8 phenol red solution. […]. The phenol red solution was made by taking 2 ml of a concentrated pH 8 phenol solution (made from a mixture of phenol red 0.5% in distilled water) to which 16.6 ml of distilled water was added. The pH value was then adjusted to a 7.8 value by adding drops of a 1 N NaOH solution. Mixture of the phenol red solution and the enzymatic suspension being tested was incubated at 37° C. for 30 min. Similarly, culture extracts were analyzed in wells containing cefotaxime and tazobactam (4 mg/ml). […]

P. mirabilis [2] = experiment: ESBL NDP test using cultured strains; type: biochemical, Proteus mirabilis; design: key: (+) and (−) referred to color change being, red to yellow or unchanged, respectively; (+) and (−) referred to color change being, red to yellow or unchanged, respectively
Description: (§2) Strains were isolated on Mueller-Hinton agar (Biorad, Marnes-la-Coquette, France) and incubated at 37° C. for 16 h to 24 h before performing the NDP rapid ESBL test as follows. One calibrated inoculated loop (10 μl) of the tested strain was resuspended in 150 μl of 20 mM Tris-HCl lysis buffer previously distributed in Microbead tubes (Ultraclean Microbial DNA isolation kit Bead Tubes, MO BIO Laboratories, Carlsbad, USA). Mechanical lysis of bacteria was performed by strong agitation of Microbead tubes using a vortex adapter (MO BIO Laboratories) for 30 min at room temperature. This bacterial suspension was centrifuged at 10,000×g at room temperature for 5 min. Thirty μl of the supernatant was mixed in a well of a 96-well tray with 100 μl of a 1 ml solution made of 3 mg of purified cefotaxime sodium salt (Sigma-Aldrich, Saint-Quentin-Fallavier, France) in a pH 7.8 phenol red solution. […]. The phenol red solution was made by taking 2 ml of a concentrated pH 8 phenol solution (made from a mixture of phenol red 0.5% in distilled water) to which 16.6 ml of distilled water was added. The pH value was then adjusted to a 7.8 value by adding drops of a 1 N NaOH solution. Mixture of the phenol red solution and the enzymatic suspension being tested was incubated at 37° C. for 30 min. Similarly, culture extracts were analyzed in wells containing cefotaxime and tazobactam (4 mg/ml). Other concentrations of tazobactam and other ß-lactamase inhibitors were tested giving less clear results (data not shown). […] This definition of test positivity will be applied throughout the study.

K. oxytoca = experiment: ESBL NDP test using cultured strains; type: biochemical, Klebsiella oxytoca; design: key: (+) and (−) referred to color change being, red to yellow or unchanged, respectively; (+) and (−) referred to color change being, red to yellow or unchanged, respectively; details: K. oxytoca Wild-type penicillinase, n=1
Description: as §1

S. marcescens = experiment: ESBL NDP test using cultured strains; type: biochemical, Serratia marcescens; design: key: (+) and (−) referred to color change being, red to yellow or unchanged, respectively; (+) and (−) referred to color change being, red to yellow or unchanged, respectively
Description: as §2

S. enterica [3] = experiment: Susceptibility testing, MIC by Etest; type: cell-based, Salmonella enterica
Description: (§3) Susceptibility testing was performed by determining MIC values using the Etest® (AB bioMérieux; Solna, Sweden) on Mueller-Hinton agar plates at 37° C. and results were recorded according to US guidelines (CLSI), as updated in 2012 (2). The breakpoints for cefotaxime are susceptible (S)≤1 and resistant (R)≥4 μg/ml, and for ceftazidime S≤4 and R≥16 μg/ml.

P. mirabilis [4] = experiment: Susceptibility testing, MIC by Etest; type: cell-based, Proteus mirabilis
Description: as §3

CTX-M producers = experiment: Susceptibility testing, MIC by Etest; type: cell-based, Enterobacteriaceae; details: all CTX-M producers (n=147)
Description: as §3

E. cloacae = experiment: ESBL NDP test using spiked blood cultures; type: biochemical, Enterobacter cloacae; design: key: (+) and (−) referred to color change being, red to yellow or unchanged, respectively; (+) and (−) referred to color change being, red to yellow or unchanged, respectively
Description: as §2
Rapid detection of ESBL producers was attempted from spiked blood cultures which positivity was assessed using the BactAlert blood culture system (bioMérieux). […] This inoculum was reached after 24-48 h incubation in this BactAlert system. Strains were inoculated into blood culture system in presence of 10 ml of sterile blood. The panel of strains used for spiking blood cultures included either non-ESBL producers (n=24) or ESBL producers (n=64) (Table 4). Spiked blood cultures were made of 1×10^3 CFU of each strain and incubated 24 to 48 h before a positivity of the blood culture was detected by the BactAlert system. Then, 15 ml of spiked blood culture were transferred in a sterile tube and centrifuged at 1,500×g for 3 min to pellet the red blood cells. The supernatant was recovered and centrifuged for 15 min at 4,000×g to pellet the bacteria. The bacterial pellet was then resuspended in 500 μl of distilled water, transferred in 1.5 ml tube and thoroughly vortexed for 15 sec to lyse the remnant red blood cells and wash the bacterial pellet. After 5 min of centrifugation at 10,000×g, the bacterial pellet was resuspended in 150 μl of 20 mM Tris-HCl lysis buffer and distributed in beadtubes. The ESBL NDP test was then applied to this pellet as described above. Experiments were systematically performed in triplicate.

E. aerogenes = experiment: ESBL NDP test using spiked blood cultures; type: biochemical, Enterobacter aerogenes; design: key: (+) and (−) referred to color change being, red to yellow or unchanged, respectively; (+) and (−) referred to color change being, red to yellow or unchanged, respectively
Description: as §1, with “The phenol red solution was made by taking 2 ml of a concentrated pH 8 phenol solution (made from a mixture of phenol red 0.5% in distilled water) to which 16.6 ml of distilled water was added. The pH value was then adjusted to a 7.8 value by adding drops of a 1 N NaOH solution. Mixture of the phenol red solution and the enzymatic suspension being tested was incubated at 37° C. for 30 min.” left out
(§4) Rapid detection of ESBL producers was attempted from spiked blood cultures which positivity was assessed using the BactAlert blood culture system (bioMérieux). […] Spiked blood cultures were made of 1×10^3 CFU of each strain and incubated 24 to 48 h before a positivity of the blood culture was detected by the BactAlert system. […]

M. morganii = experiment: ESBL NDP test using spiked blood cultures; type: biochemical, Morganella morganii; design: key: (+) and (−) referred to color change being, red to yellow or unchanged, respectively; (+) and (−) referred to color change being, red to yellow or unchanged, respectively
Description: as §1, with “The phenol red solution was made by taking 2 ml of a concentrated pH 8 phenol solution (made from a mixture of phenol red 0.5% in distilled water) to which 16.6 ml of distilled water was added. The pH value was then adjusted to a 7.8 value by adding drops of a 1 N NaOH solution. Mixture of the phenol red solution and the enzymatic suspension being tested was incubated at 37° C. for 30 min.” left out
as §4

P. mirabilis [5] = experiment: ESBL NDP test using spiked blood cultures; type: biochemical, Proteus mirabilis; design: key: (+) and (−) referred to color change being, red to yellow or unchanged, respectively; (+) and (−) referred to color change being, red to yellow or unchanged, respectively
Description: as §2
Rapid detection of ESBL producers was attempted from spiked blood cultures which positivity was assessed using the BactAlert blood culture system (bioMérieux). […] This inoculum was reached after 24-48 h incubation in this BactAlert system. Strains were inoculated into blood culture system in presence of 10 ml of sterile blood. […] Spiked blood cultures were made of 1×10^3 CFU of each strain and incubated 24 to 48 h before a positivity of the blood culture was detected by the BactAlert system. […]

[6] = S. enterica Wild-type, no resistance, n=1

CO/N=C(\C(=O)N[C@@H]1C(=O)N2C(C(=O)O)=C(COC(C)=O)CS[C@H]12)c1csc(N)n1 [CTX, cefotaxime]
Test (color change) (S. enterica [1]; S. enterica CTX-M-1, n=1): +
Test (color change) (S. enterica [1]; [6]): −
ESBL NDP Test from: Colonies (P. mirabilis [2]; P. mirabilis 09.128, TEM-52): +
ESBL NDP Test from: Colonies (P. mirabilis [2]; P. mirabilis 09.177, TEM-21): −
Test (color change) (P. mirabilis [2]; P. mirabilis ACC-1, n=1): −
ESBL NDP Test from: Colonies (P. mirabilis [2]; P. mirabilis BIK, ACC-1): −
Test (color change) (P. mirabilis [2]; P. mirabilis CTX-M-14, n=1): +
Test (color change) (P. mirabilis [2]; P. mirabilis CTX-M-15, n=1): +
Test (color change) (P. mirabilis [2]; P. mirabilis PER-1, n=1): +
Test (color change) (P. mirabilis [2]; P. mirabilis TEM-21, n=1): +
Test (color change) (P. mirabilis [2]; P. mirabilis TEM-52, n=1): +
Test (color change) (K. oxytoca): −
ESBL NDP Test from: Colonies (S. marcescens; S. marcescens BG 1107 4243, Wild-type): −
ESBL NDP Test from: Colonies (S. marcescens; S. marcescens BN 1201 0816, Wild-type): −
Test (color change) (S. marcescens; S. marcescens Wild-type, chromosome-encoded cephalosporinase, n=2): −
MICs range (S. enterica [3]; S. enterica CTX-M-1, n=1): >16 µg/mL
MICs range (S. enterica [3]; [6]): 0.05 µg/mL
MICs range (P. mirabilis [4]; P. mirabilis ACC-1, n=1): >16 µg/mL
MICs range (P. mirabilis [4]; P. mirabilis CTX-M-14, n=1): >16 µg/mL
MICs range (P. mirabilis [4]; P. mirabilis CTX-M-15, n=1): >16 µg/mL
MICs range (P. mirabilis [4]; P. mirabilis PER-1, n=1): >16 µg/mL
MICs range (P. mirabilis [4]; P. mirabilis TEM-21, n=1): 0.25 µg/mL
MICs range (P. mirabilis [4]; P. mirabilis TEM-52, n=1): >16 µg/mL
MIC (CTX-M producers): > 8 mg/L
ESBL NDP Test from: Blood culture (E. cloacae; E. cloacae 09.57, SHV-12): +
ESBL NDP Test from: Blood culture (E. cloacae; E. cloacae 10.75, CTX-M-15): +
ESBL NDP Test from: Blood culture (E. cloacae; E. cloacae 10.87, CTX-M-15): +
ESBL NDP Test from: Blood culture (E. cloacae; E. cloacae BG 1106 7725, Wild-type): −
ESBL NDP Test from: Blood culture (E. cloacae; E. cloacae BG 1106 7746, Wild-type): −
ESBL NDP Test from: Blood culture (E. cloacae; E. cloacae BG 1107 4118, Wild-type): −
ESBL NDP Test from: Blood culture (E. aerogenes; E. aerogenes BN 1113 0225, Wild-type): −
ESBL NDP Test from: Blood culture (E. aerogenes; E. aerogenes E2O15, TEM-121): +
ESBL NDP Test from: Blood culture (M. morganii; M. morganii BG 1106 5902, Wild-type): −
ESBL NDP Test from: Blood culture (M. morganii; M. morganii BG 1117 0617, Wild-type): −
ESBL NDP Test from: Blood culture (P. mirabilis [5]; P. mirabilis 09.128, TEM-52): +
ESBL NDP Test from: Blood culture (P. mirabilis [5]; P. mirabilis 09.177, TEM-21): +
ESBL NDP Test from: Blood culture (P. mirabilis [5]; P. mirabilis BIK, ACC-1): −
